From PMC8147984, “Effects of Sponge-Derived Alkaloids on Activities of the Bacterial α-D-Galactosidase and Human Cancer Cell α-N-Acetylgalactosaminidase” (Biomedicines, 2021)

What was measured:
[1] = tested on: α-NaGalase in human colorectal adenocarcinoma cell line DLD-1; experiment: Residual α-NaGalase activity (expression) in lysate of DLD-1 cells treated with alkaloids; type: cell-based; conditions: DLD-1 cells treated with 5 μM for 24 h
Procedure: DLD-1cells (5.0 × 10^5) were seeded in […] for 24 h at 37 °C in a 5% CO2 incubator. Then the cells were treated with compounds 1–9 at concentrations ranging from 0 to 20 μM for an additional 24 h. Then the cells were harvested using 0.02% EDTA, after this 3 mL of cold 15 mM Tris–HCl (pH 7.0) was added.
Every 3–4 days cells were rinsed in phosphate buffered PBS, detached from the tissue culture flask by 1× trypsin/EDTA solution, harvested with RPMI-1640 medium and centrifuge at 500 rpm for 3 min. The culture media was discarded and cells pellet was resuspended in EDTA/Tris solution and frozen at −80 °C.
Frozen lysates of cancer cells in the 15 mM Tris buffer, pH 7.0 containing 0.02% EDTA, defrosted and sonicated 10 times during 1 min with a break of 1 min. To remove the cellular detritus, the cell homogenate was centrifuged at 4 °C, 10,000 rpm, 30 min. The supernatant proteins were precipitated with 35% ammonium sulfate, kept during four hours at 4 °C to form a pellet. The protein pellet was collected by centrifugation (4 °C, 10,000 rpm, 30 min) and dissolved in 0.05 M sodium citrate buffer, pH 5.0. The supernatant proteins were precipitated with 75% ammonium sulfate, kept overnight at 4 °C to form a pellet. The protein pellet was collected by centrifugation (4 °C, 10,000 rev/min, 30 min) and dissolved in 0.05 M sodium citrate buffer, pH 5.0. Both extracts were dialyzed against the same buffer, centrifuged to separate the insoluble precipitate. α-NaGalase activity was tested in both extracts and was found only in the protein fraction precipitated with 75% ammonium sulfate. This supernatant was used in further work as partly purified enzyme. The purification quality was controlled by 12% Laemmli-SDS-PAGE-electrophoresis.
The activity of α-PsGal and α-NaGalase were determined by increasing the amount of p-nithrophenol (pNP). To assay the α-NaGalase activity 0.05 mL of cell extract and 0.1 mL of substrate pNPNA-α-Gal (8.8 mM) in 0.05 M sodium citrate buffer, pH 5.0 were placed in cells of 96-well plate and incubated at 37 °C for 30 min. The mixtures containing 0.05 mL of an enzyme solution and 0.1 mL of a substrate solution (3.3 mM) in 0.05 M sodium phosphate buffer (pH 7.0) were incubated at 20 °C during 5 min for determination of α-PsGal standard activity. […]
Absorbance was measured at 400 nm. Results were read with a computer program Gen5 and treated with ExCel computer program. […] Specific activity (A) was calculated as the enzyme activity (U) per 1 mg of protein. […] Residual activity (%) was calculated with formula: Residual activity (%) = v/v0 ×100, where v is the initial reaction rate of enzymes under the action of an inhibitor or other factors, v0 is the initial reaction rate of enzymes in the absence of the influence of any factors. […]

[2] = biological target: T1, α-D-galactosidase (α-PsGal) (Pseudoalteromonas sp. KMM 701, UniProt Q19AX0); experiment: Kinetic studies of α-PsGal inactivation; type: biochemical; conditions: pH 7.0, 20 °C; for Ki / kinact: Hill equation fit; for Ki: read-out: Ki, equilibrium inhibition constant; for kinact: read-out: kinact, inactivation rate constant (converted)
T1 sequence (Q19AX0 1-710): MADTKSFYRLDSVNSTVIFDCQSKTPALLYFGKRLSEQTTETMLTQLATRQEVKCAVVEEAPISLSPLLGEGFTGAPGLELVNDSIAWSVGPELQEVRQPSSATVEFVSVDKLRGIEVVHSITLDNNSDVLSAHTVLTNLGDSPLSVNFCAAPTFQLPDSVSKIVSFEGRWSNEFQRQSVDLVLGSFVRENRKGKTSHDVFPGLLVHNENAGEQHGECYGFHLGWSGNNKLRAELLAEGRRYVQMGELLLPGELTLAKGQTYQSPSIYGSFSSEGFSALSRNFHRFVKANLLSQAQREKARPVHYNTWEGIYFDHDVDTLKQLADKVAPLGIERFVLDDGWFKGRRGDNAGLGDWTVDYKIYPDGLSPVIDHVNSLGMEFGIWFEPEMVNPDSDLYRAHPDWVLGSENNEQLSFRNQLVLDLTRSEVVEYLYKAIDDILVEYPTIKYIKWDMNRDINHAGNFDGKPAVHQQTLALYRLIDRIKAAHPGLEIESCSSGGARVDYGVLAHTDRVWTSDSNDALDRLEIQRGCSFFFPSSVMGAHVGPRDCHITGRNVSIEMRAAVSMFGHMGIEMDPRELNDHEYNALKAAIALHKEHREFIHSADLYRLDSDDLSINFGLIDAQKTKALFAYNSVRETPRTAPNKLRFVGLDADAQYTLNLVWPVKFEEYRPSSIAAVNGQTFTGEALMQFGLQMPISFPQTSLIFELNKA
Procedure: The kinetic parameters Ki and kinact were determined by classic methods. The inactivation of α-PsGal was monitored by incubation of the enzyme with different concentrations of alkaloids in […] sodium phosphate buffer, pH 7.0, at 20 °C in total volume of 30 µL (25 µL and 5 µL of α-PsGal and alkaloids, respectively), which were placed in cells of 96 cells plate. After preincubation of enzyme-inhibitor mixture for 0.5, 5, 10, 15, 20, 25, or 30 min […] the fraction of remaining enzyme activity was measured as a function of time by addition to the inactivation mixture 120 µL of a solution of pNP-α-Gal (3.3 mM). The pseudo-first-order rate constant of inactivation (kobs) was determined for each inactivator concentration as the slope of the v/v0 dependence on the incubation time in semilogarithmic coordinates. The Excel software was used for these calculations. The second order rate constants for the inactivation process were determined by fitting the dependences of the kobs values on the concentration of the inactivators to the Hill or Michaelis–Menten equations. An analysis of the graphs and the choice of models for calculation of inhibition constants (Ki, mM) and inactivation rate constants (kinact, min^–1) were performed with the Origin computer software.

Structure (SMILES) | expression of the enzyme α-NaGalase (residual activity of lysate cell α-NaGalase, control 100%) [1] [%] | n, Hill's coefficient of cooperativity [2] | Ki [2] [µM] | kinact [2] [s⁻¹] | n, Hill's coefficient of cooperativity ([2]; listed as isoaaptamine (2)) | n, Hill's coefficient of cooperativity ([2]; listed as 9-demethylaaptamine(3))
COc1cc2ccnc3c2c(c1O)N(C)C=C3 [Compound 2, isoaaptamine] | 64 | 2.17 | 2.7 ± 0.42 | 0.002 | 2.17 ± 0.55 | 
COc1cc2ccnc3c2c(c1O)NC=C3 [Compound 3, 9-demethylaaptamine] | 57 | 0.84 | 300 ± 77 | 0.00153 |  | 0.84 ± 0.12
